Experimental data taken from patent US6825202B2, “Arylsulfonyl derivatives with 5-HT6 receptor affinity” (Syntex (U.S.A.) LLC, priority 2001, dated 2004).
Structures can show the parent of a compound that is named as a salt.

Row | melting point | Structure (SMILES)
1 | 155 to 159 °C | COc1ccc(S(=O)(=O)c2ccc(F)c3ccccc23)cc1N1CCNCC1 (as salt: hydrochloride) [compound 401, 1-[5-(4-fluoro-naphthalene-1-sulfonyl)2-methoxyphenyl]piperazine]
2 | 265 to 266.3 °C | COc1ccc(S(=O)(=O)c2cccc(Cl)c2)cc1N1CCNCC1
3 | 235.5 to 236 °C | COc1ccc(S(=O)(=O)c2ccc(Cl)cc2)cc1C1CCNCC1 (as salt: hydrochloride) [compound 301, 4-[5-(4-chloro-benzenesulfonyl)2methoxy-phenyl] piperidine]
4 | 245.9 to 246.2 °C | COc1ccc(S(=O)(=O)c2cc(Cl)cc(Cl)c2)cc1N1CCNCC1
5 | 263.4 to 272.1 °C | COc1ccc(S(=O)(=O)c2ccc(Cl)cc2)cc1N1CCNCC1
6 | 246 to 250.1 °C | COc1ccc(S(=O)(=O)c2cccc(F)c2)cc1N1CCNCC1
7 | 279.9 to 283.3 °C | COc1ccc(S(=O)(=O)c2ccc3ccccc3c2)cc1N1CCNCC1
